According to ChEMBL document CHEMBL1146874, “Metabolism investigation leading to novel drug design 2: orally active prostacyclin mimetics. Part 5” (Bioorg Med Chem Lett, 2006):

Columns and labels:
[1] = Cmax in human at 12.5 ug, po; type: ADME, organism-based; set-up: dose 12.5 ug, route oral; details: in vivo
[2] = AUC in human at 12.5 ug, po; type: ADME, organism-based; details: plasma
[3] = Half life in human at 12.5 ug, po; type: ADME, organism-based; details: in vivo
[4] = Bioavailability in human at 12.5 ug, po; type: ADME, organism-based; details: in vivo
Homo sapiens = organism: Homo sapiens; assay: Inhibition of ADP-induced platelet aggregation in human platelet rich plasma; type: functional, organism-based
[5] = Intrinsic clearance in rat liver microsomes after 60 mins; type: ADME, Microsome
[6] = Cmax in rat at 10 mg/kg, po; type: ADME, organism-based; set-up: dose 10 mg/kg, route oral; details: in vivo
[7] = Bioavailability in rat at 10 mg/kg, […]; type: ADME, organism-based; details: in vivo
Rattus norvegicus [8] = assay: AUC in rat at 10 mg/kg, po; type: ADME, organism-based, Plasma; set-up: dose 10 mg/kg, route oral; details: in vivo
[9] = Blood to plasma ratio in human at 12.5 ug, po; type: ADME, organism-based; details: read-out: BPR
Rattus norvegicus [10] = organism: Rattus norvegicus; assay: Inhibition of ADP-induced platelet aggregation in rat platelet rich plasma; type: functional, organism-based
[11] = Beta half life in rat at 10 mg/kg, iv; type: ADME, organism-based; set-up: dose 10 mg/kg, route intravenous; details: in vivo
[12] = Total clearance in rat at 10 mg/kg, iv; type: ADME, organism-based; set-up: dose 10 mg/kg, route intravenous; details: in vivo
Rattus norvegicus [13] = assay: Stability in orally dosed rat measured as M2 level in bile; type: ADME, organism-based; details: in vivo, po
Rattus norvegicus [14] = assay: Stability in orally dosed rat measured as glucuronide of M2 level in bile; type: ADME, organism-based; details: in vivo, po

Row | Compound | IC50 (Homo sapiens) | CLint scaled [5] | IC50 (Rattus norvegicus [10]) | further results
1 | O=C(O)COc1cccc2c1CC[C@](O)(COC(=O)N(c1ccccc1)c1ccccc1)C2 | 18 nM | 31.9 mL/min/kg |  | Cmax [1]: 0.157 ng/mL; AUC [2]: 0.327 ng·h/mL; half-life [3]: 90 min; bioavailability [4]: 55%; Cmax [6]: 282 ng/mL; bioavailability [7]: 9.6%; AUC (Rattus norvegicus [8]): 601 ng·h/mL; blood plasma ratio [9]: 0.57
2 | O=C(O)COc1cccc2c1CC[C@](O)(COC(=O)N(c1ccccc1F)c1ccccc1F)C2 | 63 nM | 44.8 mL/min/kg |  | 
3 | O=C(O)COc1cccc2c1C(O)C[C@](O)(COC(=O)N(c1ccccc1)c1ccccc1)C2 (stereo partly drawn) | 198 nM |  | > 10 µM | 
4 | O=C(O)COc1cccc2c1CC[C@](O)(COC(=O)N(c1ccccc1)c1ccccc1)[C@H]2O | 1290 nM |  | > 10 µM | 

The next lines start with results.

Row | IC50 (Homo sapiens) | CLint scaled [5] | IC50 (Rattus norvegicus [10]) | Compound | further results
5 | 59 nM | 4.6 mL/min/kg | > 10 µM | O=C(O)COc1cccc2c1CC[C@](O)(COC(=O)N(c1ccc(F)cc1)c1ccc(F)cc1)C2 | Cmax [6]: 575 ng/mL; half-life [11]: 180 min; clearance [12]: 30.3 mL/min/kg; bioavailability [7]: 29.5%; AUC (Rattus norvegicus [8]): 1610 ng·h/mL
6 | 13 nM | 10.3 mL/min/kg | 4.58 µM | O=C(O)COc1cccc2c1CC[C@](O)(COC(=O)N(c1ccccc1)c1ccc(F)cc1)C2 | Cmax [6]: 434 ng/mL; half-life [11]: 96 min; clearance [12]: 32.9 mL/min/kg; bioavailability [7]: 19.2%; AUC (Rattus norvegicus [8]): 961 ng·h/mL
7 | 49 nM | 12.3 mL/min/kg | 6.49 µM | O=C(O)COc1cccc2c1CC[C@](O)(COC(=O)N(c1ccccc1)c1ccc(Br)cc1)C2 | 
8 | 22 nM | 11.8 mL/min/kg | 5.11 µM | O=C(O)COc1cccc2c1CC[C@](O)(COC(=O)N(c1ccc(F)cc1)c1ccccc1F)C2 | 
9 | 25 nM | 11.7 mL/min/kg | > 10 µM | O=C(O)COc1cccc2c1CC[C@](O)(COC(=O)N(c1ccc(F)cc1)c1cccc(F)c1)C2 | 
10 | 35 nM |  | 2.49 µM | O=C(O)COc1cccc2c1CC[C@](O)(COC(=O)N(c1ccccc1)c1ccc(O)cc1)C2 | Stability (Rattus norvegicus [13]): 12%; Stability (Rattus norvegicus [14]): 33%
11 | 14 nM | 13.5 mL/min/kg | > 10 µM | O=C(O)COc1cccc2c1CC[C@](O)(COC(=O)N(c1cccc(F)c1)c1cccc(F)c1)C2 | 
